In PubChem BioAssay AID2060900 (Molecular Pharmacology Branch, DTP, NCI, 2025):

Tested on: 521955-158-R2-J5-PDC complex spheroids, viability
Experiment: Anticancer human tumor 521955-158-R2-J5-PDC patient-derived pancreatic carcinoma cell line growth inhibition [RAS]
Details: for viability, T/C: stronger effect = lower value
Procedure, shortened: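 Tumour cells grown as complex spheroids with HUVEC endothelial cells and mesenchymal stem cells, treated with RAS pathway inhibitor combinations. Each agent spans half-log steps from near clinical Cmax, or 10 microM where Cmax is unknown.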

[1] = curve of first compound, second compound 0.0316 µM
[2] = curve of first compound, second compound 0.1 µM
[3] = curve of first compound, second compound 0.316 µM
[4] = curve of first compound, second compound 1 µM
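Note: compound exposure lasted seven days before the viability read.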
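Throughout, for viability, T/C: spheroids also contain HUVEC endothelial cells and mesenchymal stem cells as stroma.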

Compound: O=C(c1ccc(F)c(F)c1Nc1ccc(I)cc1F)N1CC(O)([C@@H]2CCCCN2)C1 + C=CC(=O)N1CCN(c2nc(OCC3CCCN3C)nc3c(F)c(-c4nc(N)cc(C)c4C(F)(F)F)c(Cl)cc23)C(C)C1
- IC50 (curve of first compound, second compound 0.00316 µM): 23 nM
- IC50 (curve of first compound, second compound 0.01 µM): 14.2 nM
- IC50 [1]: 37.2 nM
- IC50 [2]: 40.1 nM
- IC50 [3]: 72 nM
- IC50 [4]: 26.9 nM
- viability, T/C (second compound 0.00316 µM, first compound 0.00316 µM): 93%
- viability, T/C (second compound 0.00316 µM, first compound 0.01 µM): 58%
- viability, T/C (second compound 0.00316 µM, first compound 0.0316 µM): 48%
- viability, T/C (second compound 0.00316 µM, first compound 0.1 µM): 36.6%
- viability, T/C (second compound 0.00316 µM, first compound 0.316 µM): 29.8%
- viability, T/C (second compound 0.00316 µM, first compound 1 µM): 23.3%
- viability, T/C (second compound 0.01 µM, first compound 0.00316 µM): 84.2%
- viability, T/C (second compound 0.01 µM, first compound 0.01 µM): 45.3%
- viability, T/C (second compound 0.01 µM, first compound 0.0316 µM): 45.7%
- viability, T/C (second compound 0.01 µM, first compound 0.1 µM): 38.2%
- viability, T/C (second compound 0.01 µM, first compound 0.316 µM): 31.4%
- viability, T/C (second compound 0.01 µM, first compound 1 µM): 19.6%
- viability, T/C (second compound 0.0316 µM, first compound 0.00316 µM): 65.2%
- viability, T/C (second compound 0.0316 µM, first compound 0.01 µM): 62.1%
- viability, T/C (second compound 0.0316 µM, first compound 0.0316 µM): 44.4%
- viability, T/C (second compound 0.0316 µM, first compound 0.1 µM): 47.2%
- viability, T/C (second compound 0.0316 µM, first compound 0.316 µM): 33.2%
- viability, T/C (second compound 0.0316 µM, first compound 1 µM): 21.5%
- viability, T/C (second compound 0.1 µM, first compound 0.00316 µM): 65%
- viability, T/C (second compound 0.1 µM, first compound 0.01 µM): 61.3%
- viability, T/C (second compound 0.1 µM, first compound 0.0316 µM): 44.8%
- viability, T/C (second compound 0.1 µM, first compound 0.1 µM): 50.8%
- viability, T/C (second compound 0.1 µM, first compound 0.316 µM): 31.2%
- viability, T/C (second compound 0.1 µM, first compound 1 µM): 24.1%
- viability, T/C (second compound 0.316 µM, first compound 0.00316 µM): 97%
- viability, T/C (second compound 0.316 µM, first compound 0.01 µM): 66.4%
- viability, T/C (second compound 0.316 µM, first compound 0.0316 µM): 62.6%
- viability, T/C (second compound 0.316 µM, first compound 0.1 µM): 48.1%
- viability, T/C (second compound 0.316 µM, first compound 0.316 µM): 33.8%
- viability, T/C (second compound 0.316 µM, first compound 1 µM): 20.3%
- viability, T/C (second compound 1 µM, first compound 0.00316 µM): 80.2%
- viability, T/C (second compound 1 µM, first compound 0.01 µM): 65.4%
- viability, T/C (second compound 1 µM, first compound 0.0316 µM): 42.6%
- viability, T/C (second compound 1 µM, first compound 0.1 µM): 39.3%
- viability, T/C (second compound 1 µM, first compound 0.316 µM): 32.5%
- viability, T/C (second compound 1 µM, first compound 1 µM): 22.6%

Compound: CC1(C)CCC(Nc2ncc(C(F)(F)F)c(-c3c[nH]c4c(P(C)(C)=O)c(C#N)ccc34)n2)CN1 (centres undefined) + C#Cc1c(F)ccc2cc(O)cc(-c3ncc4c(N5CC6CCC(C5)N6)nc(OCC56CCCN5CC(F)C6)nc4c3F)c12
- IC50 [1]: < 0.949 nM
- IC50 [2]: < 0.949 nM
- IC50 [3]: < 0.949 nM
- IC50 [4]: < 0.949 nM
- IC50 (curve of first compound, second compound 3.16 µM): < 0.949 nM
- IC50 (curve of first compound, second compound 10 µM): < 0.949 nM
- viability, T/C (second compound 0.0316 µM, first compound 0.000949 µM): 43.7%
- viability, T/C (second compound 0.0316 µM, first compound 0.003 µM): 38.4%
- viability, T/C (second compound 0.0316 µM, first compound 0.00949 µM): 37.1%
- viability, T/C (second compound 0.0316 µM, first compound 0.03 µM): 31.4%
- viability, T/C (second compound 0.0316 µM, first compound 0.0949 µM): 43.7%
- viability, T/C (second compound 0.0316 µM, first compound 0.3 µM): 41.9%
- viability, T/C (second compound 0.1 µM, first compound 0.000949 µM): 43.5%
- viability, T/C (second compound 0.1 µM, first compound 0.003 µM): 40.8%
- viability, T/C (second compound 0.1 µM, first compound 0.00949 µM): 33%
- viability, T/C (second compound 0.1 µM, first compound 0.03 µM): 29.6%
- viability, T/C (second compound 0.1 µM, first compound 0.0949 µM): 39.7%
- viability, T/C (second compound 0.1 µM, first compound 0.3 µM): 33.8%
- viability, T/C (second compound 0.316 µM, first compound 0.000949 µM): 40.4%
- viability, T/C (second compound 0.316 µM, first compound 0.003 µM): 37.5%
- viability, T/C (second compound 0.316 µM, first compound 0.00949 µM): 29.9%
- viability, T/C (second compound 0.316 µM, first compound 0.03 µM): 29.4%
- viability, T/C (second compound 0.316 µM, first compound 0.0949 µM): 30.3%
- viability, T/C (second compound 0.316 µM, first compound 0.3 µM): 29.2%
- viability, T/C (second compound 1 µM, first compound 0.000949 µM): 38.5%
- viability, T/C (second compound 1 µM, first compound 0.003 µM): 31.8%
- viability, T/C (second compound 1 µM, first compound 0.00949 µM): 25.5%
- viability, T/C (second compound 1 µM, first compound 0.03 µM): 26.8%
- viability, T/C (second compound 1 µM, first compound 0.0949 µM): 24.3%
- viability, T/C (second compound 1 µM, first compound 0.3 µM): 25%
- viability, T/C (second compound 3.16 µM, first compound 0.000949 µM): 33.5%
- viability, T/C (second compound 3.16 µM, first compound 0.003 µM): 27.8%
- viability, T/C (second compound 3.16 µM, first compound 0.00949 µM): 25.1%
- viability, T/C (second compound 3.16 µM, first compound 0.03 µM): 25%
- viability, T/C (second compound 3.16 µM, first compound 0.0949 µM): 21.1%
- viability, T/C (second compound 3.16 µM, first compound 0.3 µM): 24.8%
- viability, T/C (second compound 10 µM, first compound 0.000949 µM): 29.7%
- viability, T/C (second compound 10 µM, first compound 0.003 µM): 25.9%
- viability, T/C (second compound 10 µM, first compound 0.00949 µM): 20.2%
- viability, T/C (second compound 10 µM, first compound 0.03 µM): 21.2%
- viability, T/C (second compound 10 µM, first compound 0.0949 µM): 21.7%
- viability, T/C (second compound 10 µM, first compound 0.3 µM): 20.1%

Compound: CC(Nc1ccc2c(c1)OCCn1cc(N3C(=O)OCC3C(F)F)nc1-2)C(N)=O (centres undefined)
- viability, T/C (compound 0.1 µM): 57.5% [middle of 4 runs]
- viability, T/C (compound 0.316 µM): 41.1% [middle of 4 runs]
- viability, T/C (compound 1 µM): 31% [middle of 4 runs]
- viability, T/C (compound 10 µM): 23.5% [middle of 4 runs]
- IC50 (curve of compound): 136 nM [middle of 4 runs]
